The values that follow come from US7951359B2, “Compositions and methods for therapy or prevention of chemotherapy-induced neuropathy” (Merck Serono SA, priority 2004, dated 2011).

Data set [1] has as its system CIPN caused by carboplatin/paclitaxel. Conditions: 2 or 4 μg/kg sub coetaneous daily for 7 days; cited from earlier work.
Data set [2] can be described thus: Body weight in vincristine induced neuropathy rat model. Conditions: vincristine 0.15 mg/kg, vehicle-treated.
Description: The experiments were carried out employing 10 weeks-old female Dark Agouti rats (Janvier, Le Genest-St-Isle, France). […] 4-MC is a standard compound with an established neuroprotective action, used at the dose of 10 μg/kg (n=10).
Vincristine (Tocris, Illkirch, France) was administered by an injection of a vincristine solution from day 0 to 5, from day 8 to 12 and from day 15 to 16 at a dose of 0.15 mg/kg. A vincristine solution (0.03 mg/ml) was prepared in saline.
IL-6 was diluted in saline containing 0.02% BSA and was administered via subcutanuous route every day from the first day of vincristine administration until the end of the experiment.
Data set [3] deals with vincristine induced neuropathy. The data set is described as follows: Hot plate test in vincristine-treated rats. The class given is in vivo, rat. Conditions: vincristine alone; significant at 3 and 5 weeks. On the procedure: The rat was placed inside a glass cylinder of 17 cm height and 21 cm diameter on a heating-plate maintained at 52° C. (Medite OTS 40, Microm, Francheville, Rhône, France). The animal behavior was observed, particularly the licking of a foot and the adjusted leap. The latency before licking a foot or before jumping to escape the heat (adjusted leap) was recorded. The time needed to feel the thermal pain is related to the thermal sensitivity and tends to increase when thermal sensitivity is altered.
(In general: Thermal pain tests record how soon the animal reacts.)

Data set [4] relates to vincristine induced neuropathy. Briefly: Morphometric analysis of sciatic nerve in vincristine-treated rats. Conditions: vincristine alone. It is filed as in vivo, rat. The protocol: Histomorphometric analyses were carried out as described in Example 18 at the completion of the experiments, to explore morphologic changes occurring in fiber and axon diameter and myelin thickness in rats treated with vincristine and in rats co-administrated with IL-6.
With vincristine, morphometric analysis was performed 2 week after the end of vincristine administration on 3 animals per group. The animals were anesthetized by IP injection of 100 mg/kg Imalgène 500®. A 5 mm segment of sciatic nerve was excised, fixed overnight with 4% glutaraldehyde (Sigma, L'Isle d'Abeau-Chesnes, France) in phosphate buffered saline (PBS) (pH=7.4) and maintained in 30% sucrose and stored at 4° C. until further processing. At the time of use, the nerve sample was post-fixed in 1% osmium tetroxide (Sigma, L'Isle d'Abeau-Chesnes, France) in PBS for 2 h, dehydrated in serial alcohol solution, and embedded in Epon. Embedded tissues were then placed at 70° C. during 3 days to allow polymerization of the tissue wax. Cross sections of 1.5 μm thick were performed and they were stained with a 1% toluidine blue solution (Sigma, L'Isle d'Abeau-Chesnes, France) for 2 min, dehydrated and mounted on Eukitt. Twelve sections per sample were examined using an optical microscope (Nikon, Tokyo, Japan) and analyzed using, a semi-automated digital image analysis software (Biocom, France). The fiber diameter (a), axon diameter (b), and myelin thickness (c) were measured as illustrated below.

The test system of data set [5] is vincristine induced neuropathy. The data set is described as follows: Walking test (motor coordination) in vincristine-treated rats. It is filed as in vivo, rat. Conditions: vincristine alone; after 2 and 3 weeks. On the procedure: The motor coordination was assessed using walking test, which consists at measuring the time taken by a rat placed at one extremity of a 100 cm-long horizontal wooden rod of 5.5 cm diameter, 40 cm above the table, to cover a distance of 1 m on this rod. Three tests (maximum duration: 60 s each) were performed, and the mean value was calculated and retained as characteristic value. If the animal fell down, it was scored with a maximum of 60 s.

Data set [6] relates to lung (SK-MES1) tumor cell line. The data set is described as follows: Cell survival by acid phosphatase activity assay, SK-MES1. Conditions: cisplatin (2.5 μM), carboplatin (25 μM), 4 days. The class given is cell-based, human. On the procedure: (§1) The human lung (SK-MES1) and breast (MCF7) tumor cell lines were obtained from ATCC. The cell lines were maintained in Dulbecco's MEM medium (Gibco; Invitrogen, Cergy-Pontoise, France, ref. 41965039) supplemented with 1% antibiotic/antimicotic mixture solution (Gibco, ref. 15240062), and 10% heat-inactivated foetal bovine serum (Gibco, ref. F7524, batch 92K3387). The cells were amplified in Nunc tissue culture flasks (80 cm2) in a humidified incubator at 37° C. with 5% CO2 in 95% air. Cultures were sub-cultured twice a week.
(§2) The enzymatic activity has been proven to be proportional to the number of living cells (Ueda et al.; 1994).
(§3) Three days after the last replication, tumor cells were seeded in 96 well-plates (TPP, VWR International, Fontenay-sous-bois, France) at a density of 1,500 cells (MCF7 line) or 3,000 cells (SK-MES1 line) per well, in a total volume of 100 μl/well and incubated overnight in a humidified incubator at 37° C. with 5% CO2 in 95% air. […] IL-6 (in buffer solution at 1.8 mg/ml, PH: 7) was immediately added at concentrations of 0, 3, 12, 50 or 200 ng/ml.
(§4) Four days after the initiation of the intoxication, acid phosphatase activity (Example 21) in each cell culture was assessed.
(§5) After removal of the culture medium, cells were rinsed with phosphate-buffered saline (PBS, Gibco, ref. 14190-094) and further incubated for 90 min at 37° C. in 100 μl of buffer containing 0.1 mol/l sodium acetate (pH 5.5), 0.1% Triton X100 (Sigma, ref. T9284) and 10 mmol/l p-nitrophenyl phosphate (Sigma, ref. N9389). Reaction was stopped by addition of 10 μl of 1 mol/l sodium hydroxide aqueous solution (Laboratoire de Produit Chimiques de la Robertsau, Strasbourg, France; ref. 28.252.293). Absorbance of the colored solution was measured at 405 nm in a microplate reader (Labsystems Multiskan Bichromatic, EST-LAB, Strasbourg, France).
(§6) The results were expressed as percentage of optical density of the control cell cultures. The heights of the columns represent mean±SEM of percentages of 5-6 wells from two independent cultures.

Data set [7] concerns vincristine induced neuropathy. Briefly: Hindpaw skin biopsy, density of dermal nerve fibers in vincristine-treated rats. The class given is in vivo, rat. Conditions: vincristine intoxication.
Description: A 5-10 mm diameter area of skin was punch-biopsied from the hindpaw. Skin samples were immediately fixed overnight in paraformaldehyde at 4° C., incubated (overnight) in 30% sucrose in 0.1 M PBS for cryoprotection, embedded in OCT and frozen at −80° C. until cryocut. 50 μm-thick cryosections were then cut vertical to the skin surface with a cryostat. Free-floating sections were incubated for 7 days in a bath of rabbit anti-protein gene product 9.5 (1:10000; Ultraclone, Isle of Man, UK) at 4° C. The sections were then processed to reveal immunoreactivity according to the ABC peroxidase method. Briefly, they were incubated in for 1 hr with biotinylated anti-goat antibody (1:200), then 30 min in the avidin biotinylated complex at room temperature. Peroxidase activity was visualized using DAB system. Sections were then counterstained with eosin or hematoxylin. Sections were dehydrated, cleared with bioclear and mounted on eukitt. The number of dermal nerves of 3 microscope fields was counted manually under 40 magnification view.
The test system of data set [8] is vincristine induced neuropathy. Briefly: Electromyography (EMG) in vincristine-treated rats. It is filed as in vivo, rat. Conditions: vincristine alone. The protocol: In parallel to behavioral tests, electrophysiological test as described in Example 17, were carried out to evaluate fiber/nerve function in vincristine-administered rats vis-à-vis rats co-administrated with IL-6.
Electrophysiological recordings were performed using a Neuromatic 2000M electromyograph (EMG) (Dantec, Les Ulis, France). Rats were anaesthetized by IP injection of 60 mg/kg ketamine chlorhydrate (Imalgene 500®, Rhône Merieux, Lyon, France). The normal body temperature was maintained around […] with a heating lamp and verified using a contact thermometer (Quick, Bioblock Scientific, Illkirch, France) placed on the tail surface.
Compound muscle action potential (CMAP) of M wave signal (or electrically evoked muscle potential) was recorded in the gastrocnemius muscle after stimulation of the sciatic nerve. M wave reflects the current developed during the action potential of muscle fibers. A reference electrode and an active needle were placed in the hind paw. A ground needle was inserted on the lower back of the rat. Sciatic nerve was stimulated with a single 0.2 ms pulse at supramaximal intensity. The […] of the motor wave was recorded and expressed in ms.
Sensitive nerve conduction velocity (SNCV) was also recorded. The tail skin electrodes were placed as follows: a reference needle inserted at the base of the tail and an anode needle placed 30 mm away from the reference needle toward the extremity of the tail. A ground needle electrode was inserted between the anode and reference needles. The caudal nerve was stimulated with a series of 20 pulses (for 0.2 ms) at an intensity of 12.8 mA. The velocity was expressed in m/s.
H-wave reflex was recorded in the hind footpad muscle after stimulation of the sciatic nerve. A reference electrode and a ground needle were placed on the lower back of the rat. The sciatic nerve was stimulated with a single 0.2 ms pulse at supramaximal intensity. The amplitude (mV) of H wave and the proportion of animal lacking H wave response were the parameters studied.

In data set [9] the test system is breast (MCF7) tumor cell line. The data set is described as follows: Cell survival by acid phosphatase activity assay, MCF7. It is filed as cell-based, human. Conditions: cisplatin (2.5 μM), carboplatin (25 μM), 4 days. On the procedure:
as §1, §2, §3, §4, §5, §6

For “LIF: Recombinant leukemia inhibitor factor (LIF), another gp130 activator”, the “prevention of CIPN” value in [1] is given as “ineffective at preventing CIPN”.

As to `CC[C@]1(O)C[C@H]2CN(CCc3c([nH]c4ccccc34)[C@@](C(=O)OC)(c3cc4c(cc3OC)N(C=O)[C@H]3[C@@](O)(C(=O)OC)[C@H](OC(C)=O)[C@]5(CC)C=CCN6CC[C@]43[C@@H]65)C2)C1` [vincristine], the “body weight lost at completion of vincristine administration” value in data set [2] is listed as “about 10%”. Also, in [3], the “hot plate first reaction to heat versus control” value is on record as “delayed first reaction to heat”. Moreover, in [4], the axon diameter entry is “significantly decreases”, the “myelin thickness versus control” value was “significantly reduced”, the “percentage of degenerated fibers versus control” value is recorded as “two times higher” and the “percentage of myelinated fibers versus control” value is “less than that in the control non-treated group”. Also, the “sciatic nerve fiber diameter versus control” value in data set [4] is on record as “significant decrease in fiber diameter”. The “walking test performance versus non-treated controls” value in data set [5] is listed as “significantly reduced”. In data set [6], the “decrease in cell survival versus control” value is on record as “about 50%”. Also, in data set [7], the “decrease in the density of epidermal nerve fibers” value is “more than 50%”. In addition, in data set [8] (2 weeks), the “loss of M wave amplitude versus control” value is reported as “about 20%”. In addition, in [8] (5 weeks after treatment initiation), the “loss of SNCV” value is “about 10 m/s”. For the same compound, the “decrease in cell survival versus control” value in data set [9] is reported as “about 50%”.
